Reference: patent publication US20210106582A1, “COMPOUNDS AND PHARMACEUTICAL COMPOSITIONS THEREOF FOR USE IN THE TREATMENT OF FIBROTIC DISEASES” (Galapagos NV, priority 2017, published 2021)
Several values for one entry are separate records, joined by “and”; a condition that tells them apart may be missing. Equal values may be shown once.

Key:
Type in all cases: in vivo
[1] = tested on: male C57BL/6 mice fed a Methionine and Choline-deficient (MCD) diet; assay: MCD model (methionine and choline deficient diet, NASH); details: individual animals, 30 mg/kg q.d. p.o., MCD diet 8 wk
Protocol: The methionine and choline deficient (MCD) diet model is used to produce a severe phenotype of NASH in […] (Santhekadur et al., 2017), and is used to evaluate the compounds of the invention.
At induction, 8 weeks-old male C57BL/6 mice (Janvier Labs, France) maintained at 22° C.±2° C. and humidity at 55%±10%, with a 12-hrs dark/light cycle are fed a standard diet (chow (A04C-10, Safe, France) or a Methionine and Choline-deficient (MCD) diet (EFTD.90262, Ssniff, Soest, Germany) for 8 weeks. All animals have access to filtered tap drinking water.
Four weeks after the induction, the animals are either assigned to a control-group or a test-group.
Test group animals are dosed with the a test compound, i.e. Compound A (CpdA) or Compound B (CpdB), at 30 mg/kg, q.d., p.o. formulated in methylcellulose 0.5%, 1 equivalent HCl. The control groups receives a similar volume of vehicle (10 mL/kg), i.e. the standard diet for control group 1 (C1) and the MCD diet for control group 2 (C2). Mice are randomly assigned to a treatment group according to their body weight in order to ensure a homogenous reparation.
After sacrifice (week 8), the activity of the test compound on the development of NASH is assessed by plasma ALT and AST levels and in liver by histopathological examination of fibrosis and steatosis (Sirius red, Oil Red O), collagen (OH-Pro) and triglycerides content and expression of fibrotic and inflammatory genes.
In addition, the NAS score is determined to further evaluate the compounds with respect to their effect on diet induced NASH. The nonalcoholic fatty liver disease activity scoring (NAS) has been proposed and accepted as a tool to measure changes in NAFLD during therapeutic trials (Brunt et al., 2011; Kleiner et al., 2005).
The NAS score (0-8) is defined as the sum of the steatosis score (0-3), lobular inflammation score (0-3), ballooning score (0-2). A NAS score of ≥5 is indicative of a NASH diagnostic.

[2] = tested on: male C57BL/6 mice fed CDAHF diet; assay: CDAHFD model (choline-deficient, L-amino acid-defined, high-fat diet); details: individual animals, CDAHFD 10W, 30 mg/kg q.d. p.o.
[3] = tested on: female C57BL/6J mice, lung fibrosis induced by radiation; assay: Radiation induced fibrosis mice model; details: individual animals, irradiated lung, nintedanib 60 mg/kg QD PO D1-D14
Protocol: Pneumonitis and lung fibrosis are the major radiation-induced complications following thoracic radiotherapy, which is one of the major treatment of lung and breast cancers, lymphomas and hematopoietic transplant conditioning.
The objective of this model is to evaluate the effect of a compound of the invention in lung fibrosis induced by radiation in mice. (Bickelhaupt et al., 2017)
7 weeks old (18/22 gr) female C57BL/6J mice from Charles River (France) are maintained on 12 h light/dark cycle at 22° C. with ad libidum access to tap water and food.
The test compounds are dissolved/suspended in appropriate vehicle prior to using and then kept light-free, under agitation at room temperature.
The dose volume administered is 10 mL/kg and the volume is adapted following mean body weight (BW) of the group as follows: 200 μL if mean BW<22.5 g, 250 μL if mean BW≥22.5 g; 300 μL if mean BW>27.5 g.
On day 1 of week 1, the animals are exposed at the thorax to a 17 Gray irradiation dose, under isoflurane anesthesia. […]
Body weight are recorded once a week, and on Day 14, lung function measurement under anesthesia is realized by Flexivent (Devos et al., 2017) for all groups before sacrifice.
At sacrifice on Day 14, the lungs are collected and fixed in 4% formaldehyde for 24 h before embedding in paraffin. […] The anti-collagen I antibody is detected and amplified by ImmPress kit (Vector Laboratories, Cat. No: MP-7401). The immunostained sections are then scanned (Nanozoomer 2.0HT, Hamamatsu) before quantification by image analysis (CaloPix software, TRIBVN Healthcare). Data are expressed as percentage collagen I area per area of lung tissue.
Values for all mice from the same group are averaged. Data are expressed as mean±sem and are compared with a one-way ANOVA followed by Dunnett multiple comparison post hoc test. […]
Manganese superoxide dismutase (MnSOD), located in mitochondria, catalyzes the conversion of superoxide into H2O2, and is a marker of antioxidant response induced by oxidative stress. MnSOD expression is measured immunohistochemically following a protocol adapted from Inghilleri et al. (Inghilleri et al., 2006).
At sacrifice on Day 14, the lungs are collected and fixed in 4% formaldehyde for 24 h before embedding in paraffin. […] The anti-MnSOD antibody is detected by an anti-rabbit biotinylated antibody (Vector Laboratories, Cat. No: BA-1100) amplified by avidin-biotin peroxidase (Vector Laboratories, Cat. No: PK-6100). […] The immunostained sections counterstained with Gill's hematoxylin are then scanned (Nanozoomer 2.0HT, Hamamatsu) before quantification by image analysis (CaloPix software, TRIBVN Healthcare). Data are expressed as percentage MnSOD stained area per area of lung tissue.

[4] = tested on: C57BL/6N male mice, bleomycin induced pulmonary fibrosis; assay: Therapeutic bleomycin induced pulmonary fibrosis 21-day mice model; details: individual animals, BLM, nintedanib 60 mg/kg QD PO D7-D21
Protocol: The aim of the study is to test the efficacy of a test compound at three different doses in a 21-day model of bleomycin induced pulmonary fibrosis in mice.
11 week-old C57BL/6N male mice from Charles River (Italy) are maintained on 12 h light/dark cycle at 22° C. with ad libidum access to tap water and food.
On day 0, all mice in groups 2-4 receive a 1.5 U/kg oropharyngeal administration of bleomycin (BLM) to induce pulmonary fibrosis Animals in group 1 are not administered bleomycin, but instead receive a single dose of saline via the oropharyngeal route, and are considered sham control mice.
Animals are examined clinically twice daily. List of clinical signs and parameters are indicated in humane endpoints table. Animals are weighed daily starting from DO.
On day 21, lung functionality is determined. After deep anesthesia induced by an intraperitoneal injection (10 mL/kg) of a solution of xylazine (5 mg/kg) and ketamine (75 mg/kg), the trachea is exposed through midline incision and a cannula is inserted. Mice are ventilated with a tidal volume of 10 mL/kg at a frequency of 150 breaths/minute. FlexiVent (SCIREQ®) perturbations are performed three times. Deep Inflation and Pressure-Volume loops (PV loops) with stepwise increasing pressure are performed to measure the Inspiratory Capacity and stepwise pressure-driven perturbation (PVs-P). PV loops between 0 and 30 cm H2O are generated to obtain Total Lung Capacity (A). A snapshot perturbation maneuver is imposed, which is a threefold sinusoidal wave of in- and expiration controlled by the ventilator, resulting in resistance (Rrs), compliance (Crs), and elastance (Ers) of the whole respiratory system (airways, lung and chest wall). A value for each group is calculated with average FlexiVent-validated measurements recorded in each individual subject.
Then, two hours after the last dose of test substance and nintedanib, mice are sacrificed by anesthetic overdose. The lungs are excised and weighed individually. The lungs are then placed into marked bottles containing 10% buffered formalin for further histopathological evaluation.
Body weight data and lung weight data are processed using MS Excel. Statistical analysis and graphical presentation are performed using GraphPad Prism software (version 5.04).
For histopathological evaluation, whole lungs are embedded in paraffin and stained with Mallory's trichrome.
Pulmonary histological changes are assessed using Matsuse's modification of Ashcroft score (Ashcroft et al., 1988; Matsuse et al., 1999). Statistical analysis and graphical presentation is performed using GraphPad Prism software (version 5.04). Mann-Whitney test is employed.
Differences between groups are considered statistically significant when p<0.05.

With `Cc1c2n(c(OC[C@@H]3COCCO3)cc1=O)CCc1cc(OCC(F)(F)F)ccc1-2` [Compound B, 4-[[(2S)-1,4-dioxan-2-yl]methoxy]-1-methyl-9-(2,2,2-trifluoroethoxy)-6,7-dihydrobenzo[a]quinolizin-2-one] the “TIMP1 NRQ gene expression” value ([1]; NRQ scaled versus disease, Fig 8 Panel B) was 0.3 (3×) and 0.4 (2×) and 0.5 and 1.7 (2×) and 1.2 and 1.4, the “Col1a NRQ gene expression” value ([1]; dosing from week 4, Normalised Relative Quantity scaled versus disease, FIG. 8 Panel A) was 0.5 and 2.0 and 1.3 and 1.5 (2×) and 0.4 and 0.3 (2×) and 0.2 (2×) and the “TNfα NRQ gene expression” value ([1]; liver, NRQ scaled versus disease, Fig 9 Panel A) was 0.4 (2×) and 0.7 and 1.1 (2×) and 0.8 and 0.9 and 0.6 and 0.3 (2×). The “CC12 NRQ gene expression” value ([1]; liver, NRQ scaled versus disease, Fig 9 Panel B) was 0.8 and 0.3 and 0.7 (2×) and 1.2 (2×) and 0.9 (2×) and 1.5 and 0.5 and the NAS scoring data ([1]; total NAS score (0-8), Fig 10) was 5.0 and 7.0 (2×) and 6.0 (7×).
`CSc1ccc(C(=O)/C=C/c2cc(C)c(OC(C)(C)C(=O)O)c(C)c2)cc1` [CpdC, elafibranor, reference compound] was tested, and the “Col1a1 expression profiles (NRQ-scaled versus Disease-Vehicle)” value ([2]; Fig 12 panel A) was 0.07 and 0.06 and 0.48 and 0.15 and 0.09 and 0.43 and 0.61 and 0.17, the “TNFα expression profiles (NRQ-scaled versus Disease-Vehicle)” value ([2]; Figure 12 panel B) was 0.45 and 0.19 and 0.41 and 0.75 and 0.55 and 0.32 (2×) and 0.26 and 0.52 and the “Fibrosis (Sirius red area %)” value ([2]; liver, Figure 11) was 0.45% and 0.19% and 0.41% and 0.75% and 0.55% and 0.32% (2×) and 0.26% and 0.52%.
For `COC(=O)c1ccc2c(c1)NC(=O)/C2=C(\Nc1ccc(N(C)C(=O)CN2CCN(C)CC2)cc1)c1ccccc1` [nintedanib], the “Type I collagen stained area fraction” value ([3]; Figure 15) was 10.5% (2×) and 7.6% and 7.1% and 6.5% and 11.0% and 8.2% and 9.3% and 8.9% and 13.7%, the “MnSOD stained area fraction” value ([3]; Figure 16) was 1.19% and 0.75% and 0.25% and 0.50% and 0.79% and 0.62% and 0.69% and 0.92% and 0.53% and 1.11% and the “Compliance of the Respiratory System” value ([4]; Figure 14 panel B) was 0.039 mL/cmH2O (2×) and 0.031 mL/cmH2O and 0.032 mL/cmH2O (2×) and 0.040 mL/cmH2O and 0.027 mL/cmH2O (3×) and 0.034 mL/cmH2O and 0.035 mL/cmH2O and 0.045 mL/cmH2O and 0.015 mL/cmH2O. The “Elastance of the Respiratory System” value ([4]; Figure 14 panel C) was 25.83 cmH2O/mL and 32.61 cmH2O/mL and 31.04 cmH2O/mL and 25.16 cmH2O/mL and 37.06 cmH2O/mL and 36.60 cmH2O/mL and 31.06 cmH2O/mL and 29.07 cmH2O/mL and 37.31 cmH2O/mL and 28.26 cmH2O/mL and 25.68 cmH2O/mL and 22.39 cmH2O/mL and 68.28 cmH2O/mL, the “Ashcroft Score” value ([4]; Matsuse's modification, Figure 13) was 2.0 and 2.3 and 2.8 and 3.2 and 3.7 (2×) and 3.5 (4×) and 3.0 (2×) and 3.4 and 2.5 and 2.4 and the “Inspiratory Capacity” value ([4]; day 21 FlexiVent, Figure 14 panel A) was 0.69 mL and 0.57 mL and 0.62 mL and 0.71 mL and 0.48 mL and 0.58 mL and 0.68 mL and 0.53 mL and 0.56 mL and 0.76 mL and 0.78 mL and 0.33 mL.
